How the values were obtained:
[1] = test system: Male Wistar rats; test: Acute activity after single p.o. administration, paw withdrawal test (Randall and Selitto), % of analgesia; format: in vivo, rat; conditions: for analgesic activity on separate administration (codeine study) / analgesic activity / pain perception threshold on separate administration (dihydrocodeine study) / analgesic activity / pain threshold when administered alone (morphine study) / analgesic activity on separate administration (oxycodone study) / analgesic activity on separate administration (tramadol study): single separate administration p.o., magnesium salts 15 mg magnesium ions/kg; for analgesic activity on separate administration (codeine study): codeine 175 mg/kg; for analgesic activity / pain perception threshold on separate administration (dihydrocodeine study): dihydrocodeine 50 mg/kg; for effect on analgesic activity of codeine / activity on codeine analgesia compared to micronized form: 15 mg magnesium ions/kg p.o. with codeine 175 mg/kg p.o.; for effect on morphine analgesia / activity on morphine analgesia in comparison (to micronized magnesium lactate / to micronized form) / enhancement of morphine analgesia lasted up to: 15 mg magnesium ions/kg p.o. with morphine 15 mg/kg p.o.; for analgesic activity / pain threshold when administered alone (morphine study): morphine 15 mg/kg; for analgesic activity on separate administration (oxycodone study): oxycodone 5 mg/kg; for analgesic activity on separate administration (tramadol study): tramadol 125 mg/kg
Description: (§1) Male Wistar rats (250-300 g) were housed in a room maintained at a temperature of 20±2° C. under 12 h-12 h light-dark cycles. The animals had free access to food and water. Experimental groups consisted of six rats.
(§2) Drugs • Morphine at a dose of 15 mg/kg, codeine at a dose of 175 mg/kg, tramadol at a dose of 125 mg/kg and oxycodone at a dose of 5 mg/kg were dissolved in distilled water; • Dihydrocodeine at a dose of 50 mg/kg was suspended in 1% solution of methylcellulose; • Magnesium lactate (in micronized form)—at a dose of 15 mg magnesium ions/kg (150 mg of magnesium lactate/kg) was suspended in 0.5% solution of methylcellulose; • Magnesium lactate in normal (non-micronized) form—at doses of 15 or 30 mg magnesium ions/kg (150 or 300 mg of magnesium lactate/kg, respectively) was suspended in 0.5% solution of methylcellulose; • Magnesium citrate (in micronized and normal form)—at a dose of 15 mg magnesium ions/kg (112 mg of magnesium citrate/kg) was dissolved in distilled water; • Magnesium hydroaspartate (in micronized and normal form)—at a dose of 15 mg magnesium ions/kg (216 mg of magnesium hydroaspartate/kg) was suspended in 0.5% solution of methylcellulose; • Magnesium chloride (in micronized and normal form)—at a dose of 15 mg magnesium ions/kg (59.5 mg of magnesium chloride/kg) was dissolved in distilled water; • Control animals received a 0.5% solution of methylcellulose, a 1% solution of methylcellulose and distilled water, respectively, according to the same time schedule.
Magnesium salts and investigated opioids were administered concomitantly.
The micronized form of magnesium salts used in experiments contains particles of magnesium compounds of size D90<50 μm.
The normal magnesium salts form used in experiments contains particles of sizes commonly available in the market.
Acute activity of investigated drugs was measured in short time periods (from 5 to 300 min) after single administration.
(§3) All drugs were administered per os (p.o.); literally—orally. However, in practice, drugs were administered intragastric via a gastric tube.
(§4) Changes in pain thresholds were determined using a mechanical stimuli—the modification of the classic paw withdrawal test described by Randall and Selitto [1957]. In order to produce mechanical stimulation, progressively increasing pressure was applied to the dorsal surface of the rat's paw using an analgesymeter. The instrument used increased the force on the paw at a rate of 32 grams per second. The nociceptive threshold was defined as force in grams, at which the rat attempted to withdraw its right hindpaw and values of pressure were recorded at this very moment. At least two observers controlled the response.
(§5) Nociceptive thresholds (average of two trials) measured for each animal before single administration of investigated drugs (measurement of acute activity) or in day 0 before the first administration (measurement of prolonged activity) constituted the baseline pain threshold—A. Next, measurements of the withdrawal threshold to mechanical stimuli were performed at 5, 15, 30, 60, 90, 120, 180, 240, 300 min after drug administration (measurements of acute activity) or every day before drug administration (measurements of prolonged activity)—B.
(§6) In all experimental sessions (i.e. every day, each drug investigated) values of thresholds obtained (B) were compared to baseline (A).
(§7) Changes in pain threshold were calculated as a percent of baseline value according to the following formula:
(§8) [formula] • C—% of analgesia; A—pressure (in g), baseline pain threshold; B—pressure (in g) in consecutive measurements.
(§9) Percents of analgesia values calculated as above for individual animals were subsequently used to calculate average values in particular experimental groups and for statistical analysis.
The results are expressed as mean values±standard deviation of the mean (±S.E.M.).

[2] = test system: Male Wistar rats; test: Prolonged activity on repeated daily p.o. administration (7 or 10 days), paw withdrawal test (Randall and Selitto); format: in vivo, rat; conditions: separate administration p.o., magnesium lactate micronized 15 or normal 30 mg magnesium ions/kg
Description: as §1, §2
Prolonged activity of the investigated drugs was measured the following day after initial administration, but before the next administration as well as after cessation of administration. Drugs were administered for seven consecutive days (administration of morphine, codeine, dihydrocodeine, oxycodone) or for ten days (administration of tramadol).
as §3, §4, §5, §6, §7, §8, §9
The results are expressed as mean values±standard […] of the mean (±S.E.M.). The statistical significance of differences between groups was evaluated by Student's t-test. p≦0.05 was accepted as statistically significant.

[3] = single administration, 15 mg magnesium ions/kg p.o. with tramadol 125 mg/kg p.o.
[4] = single administration, 15 mg magnesium ions/kg p.o. with oxycodone 5 mg/kg p.o.
[5] = single administration, 15 mg magnesium ions/kg p.o. with dihydrocodeine 50 mg/kg p.o.

Molecule: COc1ccc2c3c1O[C@H]1[C@@H](O)C=C[C@H]4[C@@H](C2)N(C)CC[C@@]341 [codeine, reference compound]
- analgesic activity on separate administration (codeine study) [1]: did not exhibit analgesic activity
- analgesic activity on separate administration, 7 days (codeine study) ([2]; codeine 175 mg/kg): did not exhibit analgesic activity

Molecule: COc1ccc2c3c1O[C@H]1[C@@H](O)CC[C@H]4[C@@H](C2)N(C)CC[C@@]341 [dihydrocodeine, reference compound]
- analgesic activity / pain perception threshold on separate administration (dihydrocodeine study) [1]: only insignificantly raised the pain perception threshold (90-120 min)
- pain threshold on separate administration, 7 days (dihydrocodeine study) ([2]; dihydrocodeine 50 mg/kg): insignificantly raised the nociceptive stimulus threshold on days 6 and 7

Molecule: [Cl-].[Cl-].[Mg+2] [magnesium chloride, Magnesium chloride]
- enhancement of tramadol analgesia lasted until [1, 3]: 90 min
- time at which enhancement of tramadol analgesia appeared [1, 3]: 5 min
- time of maximum activity on tramadol analgesia [1, 3]: 15 min

Molecule: N[C@@H](CC(=O)[O-])C(=O)[O-].N[C@@H](CC(=O)[O-])C(=O)[O-].[H+].[H+].[Mg+2] [magnesium hydroaspartate, Magnesium hydroaspartate]
- effect on oxycodone analgesia [1, 4]: also enhanced oxycodone analgesia

Molecule: [Cl-].[Cl-].[Mg+2] [micronized magnesium chloride, Magnesium chloride]
- effect on analgesic activity of codeine ([1]; single administration): significantly enhanced the analgesic activity of codeine
- effect on dihydrocodeine analgesia [1, 5]: significantly enhanced dihydrocodeine analgesia
- time course of activity on dihydrocodeine analgesia [1, 5]: gradually increased and reached a maximum between min 45 and 90 of the measurements and then became weaker by min 210
- effect on morphine analgesia ([1]; single administration): significantly enhanced morphine analgesia
- effect on oxycodone analgesia [1, 4]: significantly enhanced oxycodone analgesia
- time at which activity on oxycodone analgesia appeared [1, 4]: 5 min
- time course of activity on oxycodone analgesia [1, 4]: maintained at a constant level up to min 30 of the study, then became weaker in min 45 and disappeared in min 60
- effect on antinociceptive activity of tramadol [1, 3]: increased antynociceptive activity of tramadol
- analgesic activity on separate administration (codeine study) [1]: did not exhibit analgesic activity
- analgesic activity / pain perception threshold on separate administration (dihydrocodeine study) [1]: did not exhibit analgesic activity
- analgesic activity / pain threshold when administered alone (morphine study) [1]: Neither morphine nor magnesium lactate and chloride in micronized or normal form administered alone showed analgesic activity
- analgesic activity on separate administration (oxycodone study) [1]: showed no analgesic activity
- analgesic activity on separate administration (tramadol study) [1]: did not exhibit analgesic activity

Molecule: N[C@@H](CC(=O)O)C(=O)O [micronized magnesium hydroaspartate, Magnesium hydroaspartate]
- effect on analgesic activity of codeine ([1]; single administration): also enhanced codeine analgesia
- activity on dihydrocodeine analgesia in comparison (to micronized form / to magnesium lactate) [1, 5]: lasted a shorter time
- effect on dihydrocodeine analgesia [1, 5]: also enhanced dihydrocodeine analgesia
- activity on morphine analgesia in comparison (to micronized magnesium lactate / to micronized form) ([1]; single administration): weaker, although significant
- effect on morphine analgesia ([1]; single administration): also enhanced morphine analgesia
- enhancement of morphine analgesia lasted up to ([1]; single administration): 180 min
- activity on tramadol analgesia in comparison (to micronized form / to magnesium chloride) [1, 3]: weaker throughout the study
- effect on antinociceptive activity of tramadol [1, 3]: also enhanced tramadol analgesia
- analgesic activity on separate administration (codeine study) [1]: did not exhibit analgesic activity
- analgesic activity / pain perception threshold on separate administration (dihydrocodeine study) [1]: did not exhibit analgesic activity
- analgesic activity / pain threshold when administered alone (morphine study) [1]: did not alter the pain threshold
- analgesic activity on separate administration (oxycodone study) [1]: showed no analgesic activity
- analgesic activity on separate administration (tramadol study) [1]: did not exhibit analgesic activity

Molecule: [Cl-].[Cl-].[Mg+2] [normal magnesium chloride, Magnesium chloride]
- activity on dihydrocodeine analgesia in comparison (to micronized form / to magnesium lactate) [1, 5]: somewhat weaker

Molecule: N[C@@H](CC(=O)O)C(=O)O [normal magnesium hydroaspartate, Magnesium hydroaspartate]
- activity on codeine analgesia compared to micronized form ([1]; single administration): significantly weaker
- activity on dihydrocodeine analgesia in comparison (to micronized form / to magnesium lactate) [1, 5]: significantly weaker
- activity on morphine analgesia in comparison (to micronized magnesium lactate / to micronized form) ([1]; single administration): much weaker
- activity on oxycodone analgesia compared to micronized form [1, 4]: enhanced oxycodone analgesia significantly less when compared to the micronized form
- analgesic activity on separate administration (codeine study) [1]: did not exhibit analgesic activity
- analgesic activity / pain perception threshold on separate administration (dihydrocodeine study) [1]: did not exhibit analgesic activity
- analgesic activity / pain threshold when administered alone (morphine study) [1]: did not alter the pain threshold
- analgesic activity on separate administration (oxycodone study) [1]: showed no analgesic activity
- analgesic activity on separate administration (tramadol study) [1]: did not exhibit analgesic activity

Molecule: Magnesium citrate
- effect on oxycodone analgesia [1, 4]: also enhanced oxycodone analgesia

Molecule: Magnesium citrate [micronized magnesium citrate]
- effect on analgesic activity of codeine ([1]; single administration): also enhanced codeine analgesia
- activity on dihydrocodeine analgesia in comparison (to micronized form / to magnesium lactate) [1, 5]: lasted a shorter time
- effect on dihydrocodeine analgesia [1, 5]: also enhanced dihydrocodeine analgesia
- activity on morphine analgesia in comparison (to micronized magnesium lactate / to micronized form) ([1]; single administration): weaker, although significant
- effect on morphine analgesia ([1]; single administration): also enhanced morphine analgesia
- enhancement of morphine analgesia lasted up to ([1]; single administration): 120 min
- effect on antinociceptive activity of tramadol [1, 3]: also enhanced tramadol analgesia
- analgesic activity on separate administration (codeine study) [1]: did not exhibit analgesic activity
- analgesic activity / pain perception threshold on separate administration (dihydrocodeine study) [1]: did not exhibit analgesic activity
- analgesic activity / pain threshold when administered alone (morphine study) [1]: did not alter the pain threshold
- analgesic activity on separate administration (oxycodone study) [1]: showed no analgesic activity
- analgesic activity on separate administration (tramadol study) [1]: did not exhibit analgesic activity

Molecule: Magnesium citrate [normal magnesium citrate]
- activity on codeine analgesia compared to micronized form ([1]; single administration): significantly weaker
- activity on dihydrocodeine analgesia in comparison (to micronized form / to magnesium lactate) [1, 5]: significantly weaker
- activity on morphine analgesia in comparison (to micronized magnesium lactate / to micronized form) ([1]; single administration): much weaker
- activity on oxycodone analgesia compared to micronized form [1, 4]: enhanced oxycodone analgesia significantly less when compared to the micronized form
- analgesic activity on separate administration (codeine study) [1]: did not exhibit analgesic activity
- analgesic activity / pain perception threshold on separate administration (dihydrocodeine study) [1]: did not exhibit analgesic activity
- analgesic activity / pain threshold when administered alone (morphine study) [1]: did not alter the pain threshold
- analgesic activity on separate administration (oxycodone study) [1]: showed no analgesic activity
- analgesic activity on separate administration (tramadol study) [1]: did not exhibit analgesic activity

— patent US9101577B2, “Analgesic pharmaceutical composition for oral administration” (Warszawski Uniwersytet Medyczny, priority 2011, dated 2015)
